Test results taken from patent US11034678B2, “Diacylglycerol acyl transferase 2 inhibitors” (Pfizer Inc., priority 2016, dated 2021).

Test: Metabolic clearance in HLM (hepatic clearance profile, Clint, app)
Format: in vitro ADME, human

Compound | CIint, app in HLM
CCOc1cccnc1Oc1cncc(-c2ncc(C(=O)NC(C)(C)CO)cn2)c1 [Example 5, 2-(5-((3-Ethoxypyridin-2-yl)oxy)pyridin-3-yl)-N-(1-hydroxy-2-methylpropan-2-yl)pyrimidine-5-carboxamide] | 18 µL/min/mg
CCOc1ccccc1O[C@@H]1CCCN(c2ncc(C(=O)NC(C)(C)CO)cn2)C1 [WO2015140658 Example 19.21] | 121 µL/min/mg
